{"source": "paper PMC10510102", "about": "“Efficient Ligand Discovery Using Sulfur(VI) Fluoride Reactive Fragments” (ACS Chemical Biology, 2023)", "key": {"[1]": {"tested_on": "HEK293T cells", "test": "Chemoproteomic profiling, proteins enriched by alkyne probes", "assay_type": "cell-based, human", "conditions": "10 μM probe, 1 h; log2 ratio ≥0.58, p-value ≤0.05, #unique peptides ≥2", "description": "(§1) HEK293T cells were treated for 1 h with probes 2j, 2k, or 2l (10 μM) or the DMSO vehicle. Competition-based experiments were also conducted where cells were pretreated with parent hits 2d (40 μM) or 2e (40 μM) for 1 h, before the addition of alkyne-containing probes 2j (10 μM) or 2k (10 μM), respectively. Following incubation, treated cells were lysed and conjugated with biotin-azide by Cu-click, and biotinylated proteins were enriched using NeutrAvidin beads. Enriched proteins were digested with LysC and trypsin, prior to analysis by LC–MS/MS (Figure 4b). […]\n(§2) 6.2. Chemoproteomics workflow\n(§3) Acetylation of NeutrAvidin agarose slurry:\n(§4) NeutrAvidin agarose slurry (10 mL) (Thermo Fisher Scientific, 29204) was centrifuged (2 min, 2000 rpm) prior to removal of the supernatant. The beads were washed three times with PBS. PBS (9 mL) and Sulfo-NHS-acetate (482 μL, 400 mM in DMSO) (Thermo Fisher Scientific, 26777) were added, the beads were incubated at room temperature for 30 min on a falcon tube roller, and then centrifuged (2 min, 2000 rpm). Supernatant was removed and the incubation step with freshly made NHS-acetate was repeated. The reaction was quenched by adding Tris (2 mL, 1 M, pH 7.5). The beads were washed once with PBS and twice with 20% EtOH. 20% EtOH (5 mL) was added, and the beads were stored at 4 °C.\nChemoproteomics workflow:\nHEK293T cell line (human origin, The Francis Crick Institute cell service) was used for this study. The cells were maintained at 37 °C with 5% CO2 in DMEM media supplemented with 10% fetal bovine serum and 1% L-Glutamine–Penicillin–Streptomycin solution (200 mM L-glutamine, 10,000 U/mL penicillin and 10 mg/mL streptomycin).\nHEK293T cells were treated in triplicate with the parent compounds 2d and 2e (40 μM final concentration) or DMSO vehicle for 1 h at 37 °C in serum free media followed by a 1 h treatment with the probes 2j, 2k and 2l (10 μM final concentration) or DMSO vehicle.\n(§5) Media was removed and cells were washed with PBS. […] Protein concentration of each lysate was determined using a BCA assay (Thermo Fisher Scientific, 23227). […]"}, "[2]": {"target": "T1, CAII (Homo sapiens, UniProt P00918)", "test": "Chemoproteomic target engagement of CAII in cells", "assay_type": "cell-based", "conditions": "HEK293T cells, 10 μM probe, 1 h, vs DMSO", "description": "as §1, §2, §3\nas §4, with “The beads were washed once with PBS and twice with 20% EtOH. 20% EtOH (5 mL) was added, and the beads were stored at 4 °C.” left out\nas §5"}, "[3]": {"target": "T1, CAII", "test": "Single shot screen of chemoproteomic probes, intact protein LC-MS", "assay_type": "binding", "parameters": "purchased Sigma Aldrich C6624-500UG; host or cells: E. coli", "conditions": "1 μM CAII, 50 μM SF, 4 °C, 24 h", "from_the_text": "Hits from the CAII screen were progressed to chemoproteomic profiling to determine cellular target engagement and to measure their off-target profiles. SFs 2d and 2e were functionalized with an alkyne handle at the linking amide group to give probes 2j and 2k. A structurally similar negative control was also designed by substitution of the sulfonamide for a methoxy group, 2l (Figure 4a). […] The proteins engaged by these three probes were subsequently studied in HEK293T cells. […]\n6.1. Single shot screen of chemoproteomic probes against CAII\nThe (synthesized and purified) active probes 2j, and 2k, as well as negative control 2l, were plated into a Greiner 384 white low volume plate from a 10 mM source in DMSO. Purified CAII diluted from original stock into a buffer made up of HEPES (pH 7.5, 25 mM) and NaCl (50 mM) in distilled MS-grade water (15 µL per well) was subsequently added across the plate. Final concentrations: 1 µM protein; 50 µM SF. The plate was sealed, centrifuged (1 min, 1000 rpm), incubated at 4 °C for 24 h, and subsequently analyzed by intact protein LC-MS. Modification yields were measured as 78% for 2j and 95% for 2k.\n6.2. Chemoproteomics workflow […]\nChemoproteomics workflow: […]\nSamples were incubated with acetylated NeutrAvidin agarose slurry (100 µL) (pre-washed three times with 0.2% SDS in HEPES (50 mM, pH 8.0)) on a combinatorial microlute plate (Porvair, 240002) for 2 h. The plate was centrifuged (1 min, 700 g) to remove supernatants.\nThe beads were washed three times with lysis buffer and 0.2% SDS in HEPES (50 mM, pH 8.0). The proteins were digested on-bead overnight at 37 °C with LysC (60 μL, 0.004 μg/μL) in HEPES (50 mM, pH 8.0). The supernatants were collected (1 min, 700 g) on a fresh plate and trypsin (30 μL, 0.006 μg/μL) in HEPES (50 mM, pH 8.0) was added to each sample. The samples were incubated for 4 h at 37 °C and acidified with 20% formic acid (10 μL).\nThe peptide samples were cleaned-up using C18 96-well plate (BioPureSPE Macro 96-Well, 100 mg PROTO C18, The Nest Group). The wells were conditioned with acetonitrile (300 μL) (centrifuged for 1 min at 50 g) and equilibrated twice with 0.1% TFA (300 μL) (centrifuged for 1 min at 150 g). 0.1% TFA (100 μL) was added to digest samples, and these were subsequently loaded on the plate (centrifuged for 1 min at 150 g). The samples were washed twice with 0.1% TFA (200 μL) (centrifuged for 1 min at 150 g). The plate was centrifuged once more at 200 g for 1 min. The peptides were eluted in two steps with 0.1% TFA (150 μL) in 50% acetonitrile"}, "[4]": {"tested_on": "BCL6", "parameters": "method as in PMID 34274316", "conditions": "cited from earlier work"}, "[5]": {"target": "BCL6 BTB/POZ domain (Homo sapiens, UniProt P41182, C67R/C84N/C8Q)", "test": "Conventional differential scanning fluorimetry (DSF)", "assay_type": "binding", "parameters": "hBCL6-Flag 3Cmut (5-129) produced in house; FLAG (C); made in house", "description": "We subsequently analyzed protein-fragment interactions using differential scanning fluorimetry (DSF) to explore the impact of these binding events on protein stability.[45] […] […]; this illustrates the impact of covalent modification on protein–ligand binding. […]\n8.2. Conventional differential scanning fluorimetry (DSF)\nBCL6-SF covalent complex preparation:\nSFs 2f–i, 2p, 2q, 2s, and 2t in DMSO-d 6 (200 mM stock) or pure DMSO-d 6 were added to crystallizable BCL6 BTB/POZ domain (10 µM) in 20 mM Tris pH 8.5 and 200 mM NaCl. The reactions were incubated at 20 °C for 6 h (meta-substituted benzamide fragments) or 24 h (azetidinyl/piperidinyl fragments). Final concentrations: 10 µM protein, 500 µM SF, DMSO 0.25% v/v in 200 µL. Unreacted compound and DMSO-d 6 were removed by buffer-exchanging protein solutions into 20 mM Tris pH 8.5, 200 mM NaCl and 5% v/v glycerol inside Vivaspin 500 PES Centrifugal Concentration units. The protein was concentrated to 0.6–1.3 mg/mL within the units, according to UV-vis absorption spectrophotometry via a Nanodrop ND-1000 instrument. Protein was flash frozen using a dry ice/ethanol bath prior to […]\nDifferential scanning fluorimetry assay:\nGSK137 (40 mM stock) or pure DMSO-d 6 were added to crystallizable BCL6 BTB/POZ domain (11 µM) in 20 mM Tris pH 8.5, 200 mM NaCl and 5% v/v glycerol to give solutions containing: 11 µM protein, DMSO 0.63% v/v and 222 µM GSK137 (where applicable).\nConcentrated protein-SF complexes were also thawed and diluted to 11 µM in 20 mM Tris pH 8.5, […] and 5% v/v glycerol.\nSYPRO Orange dye (Invitrogen S6650) in extra dilution buffer (50×, eq. 1% v/v DMSO) was added to give assay-ready solutions with final concentrations: 10 µM protein, SYPRO 5×, DMSO 0.1% v/v in volume 80 µL for the protein-SF covalent complexes or 10 µM protein, SYPRO 5×, DMSO 0.6% v/v in volume 100 µL with and without 200 µM GSK137.\nEach solution was aliquoted (3 × 20 µL) into wells of an opaque 384-well PCR microplate (Axygen PCR-384-LC480-W) and coated with silicone oil DC 200 (5 µL; Fluka Chemicals 85413). The microplate was centrifuged (1 min, 200 g) prior to insertion into a Fluodia T70 spectrophotometer (Photal Instruments). The fluorescence intensity was detected (emission wavelength: […]) as the plate instrument interior was heated from 27–75 °C using a temperature stepping mode (waiting time before measurement: 60 s; fluorescence measurement interval: 45 s). The approximate temperature gradient was 0.5 °C min-1.\nThe fluorescence intensity data from the individual replicates of each sample type were normalized and identically truncated within GraphPad Prism 5.0.4.11 These values were subsequently fitted to equation (4) corresponding to a Boltzmann sigmoid in order to obtain the melting temperature (“V50”; T m) of the protein:\nY=BOTTOM+((TOP+BOTTOM)/(1+exp((V50–X)/SLOPE))) (4)\nThe three obtained T m values were averaged to give a final T m value in each case. The normalized fluorescence data for the three replicates of each sample were averaged to yield a single dataset for each case, which were then plotted in GraphPad Prism 5.0.4 to give the plots shown in the manuscript.11\nTable S9. Thermal melting temperatures of unmodified and covalently modified BCL6 BTB/POZ domain as determined by differential scanning fluorimetry measurements.\nThe arithmetic mean and standard deviation from three replicates are shown.\nHit Chemotype Protein Species Tm / °C ΔT m / °C […]\nmeta-Substituted Benzamide BCL6 + 2g 70.4 ± 0.3 +11.7\nAzetidinyl Fragments BCL6 + 2h 55.5 ± 0.1 −3.2 […]\n8.3. Protocol for kinetic analyzes (BCL6)\nThe (resynthesized and purified) SF hits (2f–i) were plated into seven Greiner 384 white low volume plate from a 10 mM source in DMSO. Differing volumes were added such that the final concentrations for each compound would be: 100, 50, 20, 10, or 5 µM after adding 15 µL of protein stock solution per well. […]"}}, "note": "“And” between values parts separate entries of the source, which are not always exact repeats. Equal values may be shown once. “Also recorded” adds a separate entry of the source.", "data": [{"smiles": "C#CCN(CCc1ccc(S(N)(=O)=O)cc1)C(=O)Cc1ccc(S(=O)(=O)F)cc1", "note": "[2k]", "values": [{"measurement": "number of proteins enriched by comparison to DMSO control", "setting": "[1]", "result": 501}, {"measurement": "enrichment of CAII", "setting": "[2]", "result": "some enrichment"}, {"measurement": "covalent modification of purified CAII", "setting": "[3]", "result": "covalently modified CAII"}, {"measurement": "modification yield", "setting": "[3]", "result": 95, "unit": "%"}]}, {"smiles": "Cc1ncccc1[C@H]1C[C@@H](c2cccc3nc(N)ccc23)Nc2c(F)cnn21", "note": "[GSK137, reference compound]", "values": [{"measurement": "biochemical pIC50", "setting": "[4]", "result": 8}, {"measurement": "Tm", "setting": "[5]; 10 μM protein, covalent complex (500 μM SF, 6 or 24 h) or 200 μM GSK137, mean ± SD, three replicates", "result": "> 72", "unit": "°C"}, {"measurement": "ΔTm", "setting": "[5]; relative to unmodified BCL6", "result": "> 12.3 °C and ~12 °C"}]}, {"smiles": "C#CCN(Cc1cccc(OC)c1)C(=O)Cc1ccc(S(=O)(=O)F)cc1", "note": "[2l]", "values": [{"measurement": "number of proteins enriched by comparison to DMSO control", "setting": "[1]", "result": 447}, {"measurement": "covalent modification of purified CAII", "setting": "[3]", "result": "Negligible modification; also recorded: did not"}]}, {"smiles": "C#CCN(Cc1cccc(S(N)(=O)=O)c1)C(=O)Cc1ccc(S(=O)(=O)F)cc1", "note": "[2j]", "values": [{"measurement": "number of proteins enriched by comparison to DMSO control", "setting": "[1]", "result": 523}, {"measurement": "enrichment of CAII", "setting": "[2]", "result": "some enrichment"}, {"measurement": "covalent modification of purified CAII", "setting": "[3]", "result": "covalently modified CAII"}, {"measurement": "modification yield", "setting": "[3]", "result": 78, "unit": "%"}]}]}
